We go through 11 molecules from PubChem BioAssay AID1356 (Sanford-Burnham Center for Chemical Genomics, 2008).

The subject of the test is HeLa thapsigargin-induced death, ATPlite luminescence, 24 h. In words: protection from thapsigargin-induced HeLa death, SAR follow-up, cell-based, HeLa cervical carcinoma, ATP content (AID 1356). As to conditions: at 25 µM, stronger effect = higher value.
The mark [1] stands for this setting: measured here: survival at thapsigargin 15 uM.
Where [2] appears, read: measured here: survival at thapsigargin 20 uM.
[3] abbreviates: measured here: survival, thapsigargin level col 9.
Setting [4] is: measured here: survival, thapsigargin level col 10.

Structures are written as SMILES.

Consider `CCOc1cccc(C2Nc3ccccc3NC3=C2C(=O)CC(c2ccc(OC)cc2)C3)c1` (stereo not given), for which the survival is 96%. The same molecule showed a survival under setting [1] of 8%. For the same molecule, the survival under setting [2] worked out at 3%. Under setting [3], the survival was found to be 81%. Under setting [4], this molecule gave a survival of 106%.

For the molecule `O=C1CC(c2ccccc2)CC2=C1C(c1c(F)cccc1Cl)Nc1ccccc1N2` (stereo not given), the survival was 118%. Also, the survival under setting [1] stood at 89%. The molecule also had a survival under setting [2] of 18%. Also, under setting [3], the survival came out at 93%. Besides, under setting [4], the survival was found to be 99%.

As to `COc1ccc(C2CC(=O)C3=C(C2)Nc2ccccc2NC3c2cccc(C(F)(F)F)c2)cc1OC` (stereo not given), the survival was 90%. Further, the survival under setting [1] came to 100%. This molecule also had a survival under setting [2] of 122%. In addition, the survival under setting [3] was determined as 88%. This molecule showed a survival under setting [4] of 90%.

Regarding `CSc1ccc(C2Nc3ccccc3NC3=C2C(=O)CC(c2ccccc2)C3)cc1` (stereo not given), the survival was 85%. Under setting [1], this molecule had a survival of 77%. Under setting [2], this molecule gave a survival of 23%. For the same molecule, under setting [3], the survival worked out at 81%. The same molecule showed a survival under setting [4] of 83%.

For the molecule `COc1ccc(C2CC(=O)C3=C(C2)Nc2ccccc2NC3c2cccc(Br)c2)cc1OC` (stereo not given), the survival was 87%. This molecule also returned a survival under setting [1] of 93%. The molecule further had a survival under setting [2] of 90%. Further, under setting [3], the survival stood at 86%. Further, the survival under setting [4] came out at 92%.

For `COc1ccc(C2CC(=O)C3=C(C2)Nc2ccccc2NC3c2cc(C)ccc2C)cc1` (stereo not given), the survival was 99%. In addition, the survival under setting [1] is 83%. For the same molecule, under setting [2], the survival amounted to 24%. Moreover, the survival under setting [3] turned out to be 80%. Besides, the survival under setting [4] was 81%.

Take `COc1ccc(C2CC(=O)C3=C(C2)Nc2ccccc2NC3c2cccc(Oc3ccccc3)c2)cc1OC` (stereo not given): the survival is 90%. Under setting [1], this molecule returned a survival of 96%. This molecule gave a survival under setting [2] of 102%. In addition, the survival under setting [3] was 87%. Moreover, the survival under setting [4] is 85%.

`CCCOc1ccc(C2Nc3ccccc3NC3=C2C(=O)CC(c2ccc(OC)c(OC)c2)C3)cc1` (stereo not given): the survival was 91%. For the same molecule, under setting [1], the survival came out at 109%. Further, under setting [2], the survival was found to be 90%. This molecule registered a survival under setting [3] of 88%. Further, under setting [4], the survival stood at 90%.

Take `CCOc1cc(C2Nc3ccccc3NC3=C2C(=O)CC(c2ccc(OC)cc2)C3)cc(Cl)c1O` (stereo not given): the survival is 129%. This molecule registered a survival under setting [1] of 29%. Besides, the survival under setting [2] was determined as 8%. Also, the survival under setting [3] was found to be 90%. In addition, the survival under setting [4] worked out at 106%.

As to `COc1ccc(C2CC(=O)C3=C(C2)Nc2ccccc2NC3c2ccccc2C(F)(F)F)cc1OC` (stereo not given), the survival is 92%. The survival under setting [1] is 107%. The molecule also yielded a survival under setting [2] of 72%. This molecule also came in with a survival under setting [3] of 93%. This molecule also gave a survival under setting [4] of 91%.

On to `CC1(C)CC(=O)C2=C(C1)Nc1ccccc1NC2c1ccc(-c2ccccc2)cc1` (stereo not given), for which the survival was 97%. The molecule further had a survival under setting [1] of 106%. Further, the survival under setting [2] came out at 114%. The molecule further came in with a survival under setting [3] of 92%. This molecule also had a survival under setting [4] of 88%.
